Assay results: US20260201008A1, “SECRETIN-DERIVED GLP1R SELECTIVE AGONISTS” (GUBRA A/S, priority 2023, published 2026)
Where two headings read alike, the source gives them in different places. Numbered stars: 1 amine (or outer) side, 2 acyl side, 3 side chain; on linkers, the order of the positions; unused ones are H or OH. Square brackets hold non-standard residues; d marks the D form. Side chains are listed from the residue outwards. Peptide text beside a SMILES is read from it. * marks the point of attachment. C20 diacid = O=C(O)CCCCCCCCCCCCCCCCCCC(=O)*; γGlu = O=C(O)[C@H](CCC(=O)[*:2])N[*:1]; AEEA = NCCOCCOCC(=O)O; Aib = CC(C)(N)C(=O)O

Assays:
[1] = Fibril formation of crude library peptides (Thioflavin T); type: physicochemical; design: key: average ThT fluorescence emission at 480 nm (ex 450 nm), raw units; settings: Physical stability of peptides
How it was run: (§1)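 Fibril formation is scored as average ThT fluorescence from duplicate samples monitored for 72 h at 40° C with shaking stress. Turbidity is the absorbance at 600 nm taken before heating. Peptide concentration was 267 μM at pH 4.0 or pH 7.0.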

SCTR = SCTR (Homo sapiens, UniProt P47872); test: hSCTR potency, cAMP accumulation in CHO-K1 cells stably overexpressing hSCTR; type: cell-based; design: alternatively Euroscreen ES-712-AF; FAST-0161L; host or cells: CHO-K1; settings: cAMP accumulation
Sequence of SCTR (P47872 23-440): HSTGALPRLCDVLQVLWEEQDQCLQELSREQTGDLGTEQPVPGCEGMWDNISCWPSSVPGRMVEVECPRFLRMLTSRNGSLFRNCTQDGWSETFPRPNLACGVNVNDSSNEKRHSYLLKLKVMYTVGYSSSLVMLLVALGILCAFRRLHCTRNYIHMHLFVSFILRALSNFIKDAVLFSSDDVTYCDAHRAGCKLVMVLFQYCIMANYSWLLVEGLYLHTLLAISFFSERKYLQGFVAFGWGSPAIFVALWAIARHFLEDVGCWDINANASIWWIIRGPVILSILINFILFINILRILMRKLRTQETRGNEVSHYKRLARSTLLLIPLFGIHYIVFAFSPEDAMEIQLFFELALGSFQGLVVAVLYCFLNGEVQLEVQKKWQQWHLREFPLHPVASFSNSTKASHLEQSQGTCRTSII
How it was run: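 CHO-K1/hSCTR cells; DPBS + 0.05% casein + 0.5 mM IBMX; 30 min RT stimulation; cAMP by TR-FRET read at 1 h. Crude peptides: 5-point 10-fold dilutions, n=1. Purified: 11-point 3-fold dilutions, n=2. EC50 via variable-slope fit.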

[2] = Turbidity of crude library peptides (absorbance at 600 nm); type: physicochemical; settings: Physical stability of peptides
How it was run: as §1

GLP1R = GLP1R (Homo sapiens, UniProt P43220); test: hGLP1R potency, cAMP accumulation in CHO-K1 cells stably overexpressing hGLP1R; type: cell-based; design: host or cells: CHO-K1; settings: for Selectivity: SCTR EC50/GLP1R EC50 ratio; for EC50: cAMP accumulation; for SCTR EC50/GLP1R EC50 ratio: cAMP accumulation in CHO-K1 cells
Sequence of GLP1R (P43220 24-463): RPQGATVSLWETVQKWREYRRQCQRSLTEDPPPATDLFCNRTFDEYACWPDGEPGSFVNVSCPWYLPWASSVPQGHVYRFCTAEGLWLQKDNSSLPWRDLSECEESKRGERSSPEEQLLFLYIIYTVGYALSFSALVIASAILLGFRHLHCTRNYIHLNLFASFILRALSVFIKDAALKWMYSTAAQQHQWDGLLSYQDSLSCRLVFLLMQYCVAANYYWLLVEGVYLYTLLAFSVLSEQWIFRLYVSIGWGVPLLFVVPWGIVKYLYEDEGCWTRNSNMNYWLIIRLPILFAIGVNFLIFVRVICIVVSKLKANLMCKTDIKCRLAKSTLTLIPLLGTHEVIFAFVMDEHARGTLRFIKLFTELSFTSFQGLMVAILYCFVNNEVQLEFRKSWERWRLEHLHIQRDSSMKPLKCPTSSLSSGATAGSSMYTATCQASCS
How it was run: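 TR-FRET cAMP read-out, one hour after reagent addition, following 30 min compound exposure at RT in DPBS/0.05% casein/0.5 mM IBMX. Crude peptides: 5 points, 10-fold steps, n=1. Purified peptides: 11 points, 3-fold steps, n=2. EC50 fitted with a variable-slope sigmoid.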

[3] = CHO-K1 cells overexpressing hSCTR, read-out: pEC50 hSCTR (converted)
[4] = CHO-K1 cells overexpressing hGLP1R, read-out: pEC50 hGLPR1 (converted)
[5] = CHO-K1 cells overexpressing hSCTR, read-out: hSCTR pEC50 (converted)
[6] = CHO-K1 cells overexpressing hGLP1R, read-out: hGLP1R pEC50 (converted)
[7] = selectivity for hGLP1R over hSCTR

SMILES | Fibril formation [1] | EC50 (SCTR; [3]) [nM] | Turbidity (pH 7) [2] | Selectivity (GLP1R) | EC50 (GLP1R; [4]) [nM] | EC50 (SCTR; [5]) [nM] | EC50 (GLP1R; [6]) [nM] | SCTR EC50/GLP1R EC50 ratio (GLP1R; [7]) | EC50 (SCTR; CHO-K1 cells stably overexpressing hSCTR, read-out: hSCTR potency (pEC50) (converted)) [nM] | EC50 (GLP1R; CHO-K1 cells stably overexpressing hGLP1R, read-out: hGLP1R potency (pEC50) (converted)) [nM] | SCTR EC50/GLP1R EC50 ratio (GLP1R; selectivity ratio, hSCTR vs hGLP1R)
CC(C)C[C@H](NC(=O)[C@H](Cc1ccccc1)NC(=O)[C@H](CCCNC(=N)N)NC(=O)[C@H](CCC(N)=O)NC(=O)[C@H](CO)NC(=O)[C@H](C)NC(=O)[C@H](C)NC(=O)[C@@H](NC(=O)[C@H](CCC(=O)O)NC(=O)[C@H](CCCCNC(=O)COCCOCCNC(=O)COCCOCCNC(=O)CC[C@H](NC(=O)CCCCCCCCCCCCCCCCCCC(=O)O)C(=O)O)NC(=O)[C@H](CC(C)C)NC(=O)[C@@H](NC(=O)[C@H](CO)NC(=O)[C@@H](NC(=O)[C@H](CC(=O)O)NC(=O)[C@H](CO)NC(=O)[C@@H](NC(=O)[C@H](Cc1ccccc1)NC(=O)[C@@H](NC(=O)CNC(=O)[C@H](CCC(=O)O)NC(=O)C(C)(C)NC(=O)[C@@H](N)Cc1c[nH]cn1)[C@@H](C)O)[C@@H](C)O)C(C)C)[C@@H](C)O)[C@@H](C)O)C(=O)N[C@@H](CCC(=O)O)C(=O)N[C@@H](Cc1c[nH]cn1)C(=O)N[C@@H](CC(C)C)C(=O)N[C@H](C(N)=O)C(C)C [compound 20] (H-H[Aib]EGTFTSDVSTLK([AEEA-AEEA-γGlu-C20 diacid])ETAASQRFLEHLV-NH2) | 33108 | 398 | 0.10 | 22019 | 0.02 | – | – | – | – | – | –
CC(C)C[C@H](NC(=O)[C@H](Cc1ccccc1)NC(=O)[C@H](CCCNC(=N)N)NC(=O)[C@H](CCC(N)=O)NC(=O)[C@@H](NC(=O)[C@H](C)NC(=O)[C@H](C)NC(=O)[C@@H](NC(=O)[C@H](CCC(=O)O)NC(=O)[C@H](CCCCNC(=O)COCCOCCNC(=O)COCCOCCNC(=O)CC[C@H](NC(=O)CCCCCCCCCCCCCCCCCCC(=O)O)C(=O)O)NC(=O)[C@H](CC(C)C)NC(=O)[C@H](CCC(=O)O)NC(=O)[C@H](CO)NC(=O)[C@@H](NC(=O)[C@H](CC(=O)O)NC(=O)[C@H](CO)NC(=O)[C@@H](NC(=O)[C@H](Cc1ccccc1)NC(=O)[C@@H](NC(=O)CNC(=O)[C@H](CCC(=O)O)NC(=O)C(C)(C)NC(=O)[C@@H](N)Cc1c[nH]cn1)[C@@H](C)O)[C@@H](C)O)C(C)C)[C@@H](C)O)[C@@H](C)O)C(=O)N[C@@H](CCC(=O)O)C(=O)N[C@@H](Cc1c[nH]cn1)C(=O)N[C@@H](CC(C)C)C(=O)N[C@H](C(N)=O)C(C)C [compound 54] (H-H[Aib]EGTFTSDVSELK([AEEA-AEEA-γGlu-C20 diacid])ETAATQRFLEHLV-NH2) | 7756 | 126 | 0.09 | 11020 | 0.0126 | – | – | – | – | – | –
CC(C)C[C@H](NC(=O)[C@H](Cc1ccccc1)NC(=O)[C@H](CCCNC(=N)N)NC(=O)[C@H](CCC(N)=O)NC(=O)[C@H](CO)NC(=O)[C@H](C)NC(=O)[C@H](C)NC(=O)[C@H](Cc1ccccc1)NC(=O)[C@H](CCC(=O)O)NC(=O)[C@H](CCCCNC(=O)COCCOCCNC(=O)COCCOCCNC(=O)CC[C@H](NC(=O)CCCCCCCCCCCCCCCCCCC(=O)O)C(=O)O)NC(=O)[C@H](CC(C)C)NC(=O)[C@H](CCC(=O)O)NC(=O)[C@H](CO)NC(=O)[C@@H](NC(=O)[C@H](CC(=O)O)NC(=O)[C@H](CO)NC(=O)[C@@H](NC(=O)[C@H](Cc1ccccc1)NC(=O)[C@@H](NC(=O)CNC(=O)[C@H](CCC(=O)O)NC(=O)C(C)(C)NC(=O)[C@@H](N)Cc1c[nH]cn1)[C@@H](C)O)[C@@H](C)O)C(C)C)C(=O)N[C@@H](CCC(=O)O)C(=O)N[C@@H](Cc1c[nH]cn1)C(=O)N[C@@H](CC(C)C)C(=O)N[C@H](C(N)=O)C(C)C [compound 8] (H-H[Aib]EGTFTSDVSELK([AEEA-AEEA-γGlu-C20 diacid])EFAASQRFLEHLV-NH2) | 259534 | 1580 | 0.09 | 30095 | 0.0501 | – | – | – | – | – | –

The next lines start with the values.

Fibril formation [1] | EC50 (SCTR; [3]) [nM] | Turbidity (pH 7) [2] | Selectivity (GLP1R) | EC50 (GLP1R; [4]) [nM] | EC50 (SCTR; [5]) [nM] | EC50 (GLP1R; [6]) [nM] | SCTR EC50/GLP1R EC50 ratio (GLP1R; [7]) | EC50 (SCTR; CHO-K1 cells stably overexpressing hSCTR, read-out: hSCTR potency (pEC50) (converted)) [nM] | EC50 (GLP1R; CHO-K1 cells stably overexpressing hGLP1R, read-out: hGLP1R potency (pEC50) (converted)) [nM] | SCTR EC50/GLP1R EC50 ratio (GLP1R; selectivity ratio, hSCTR vs hGLP1R) | SMILES
3449 | – | 0.15 | – | – | 2000 | 0.2 | 10257 | – | – | – | CC[C@H](C)[C@H](NC(=O)[C@H](Cc1ccccc1)NC(=O)[C@H](CCCNC(=N)N)NC(=O)[C@H](CCC(N)=O)NC(=O)[C@H](CC(C)C)NC(=O)[C@H](C)NC(=O)[C@H](C)NC(=O)CNC(=O)[C@H](CCC(=O)O)NC(=O)[C@H](CC(C)C)NC(=O)[C@H](CC(C)C)NC(=O)[C@@H](NC(=O)[C@H](CO)NC(=O)C(C)(C)NC(=O)[C@H](CC(=O)O)NC(=O)[C@H](CO)NC(=O)[C@@H](NC(=O)[C@H](Cc1ccccc1)NC(=O)[C@@H](NC(=O)CNC(=O)[C@H](CCC(=O)O)NC(=O)C(C)(C)NC(=O)[C@@H](N)Cc1c[nH]cn1)[C@@H](C)O)[C@@H](C)O)C(C)C)C(=O)N[C@@H](CCC(N)=O)C(=O)N[C@@H](Cc1c[nH]c2ccccc12)C(=O)N[C@@H](CC(C)C)C(=O)N[C@H](C(N)=O)C(C)C [compound 110] (H-H[Aib]EGTFTSD[Aib]SVLLEGAALQRFIQWLV-NH2)
260000 | – | 0.43 | – | – | 251 | 0.0251 | 10252 | – | – | – | CC[C@H](C)[C@H](NC(=O)[C@H](Cc1ccccc1)NC(=O)[C@H](CCCNC(=N)N)NC(=O)[C@H](CCC(N)=O)NC(=O)[C@H](CC(C)C)NC(=O)[C@H](C)NC(=O)[C@H](C)NC(=O)CNC(=O)[C@H](CCC(=O)O)NC(=O)[C@H](CC(C)C)NC(=O)[C@H](CC(C)C)NC(=O)[C@@H](NC(=O)[C@H](CO)NC(=O)[C@@H](NC(=O)[C@H](CC(=O)O)NC(=O)[C@H](CO)NC(=O)[C@@H](NC(=O)[C@H](Cc1ccccc1)NC(=O)[C@@H](NC(=O)CNC(=O)[C@H](CCC(=O)O)NC(=O)C(C)(C)NC(=O)[C@@H](N)Cc1c[nH]cn1)[C@@H](C)O)[C@@H](C)O)C(C)C)C(C)C)C(=O)N[C@@H](CCC(N)=O)C(=O)N[C@@H](Cc1c[nH]c2ccccc12)C(=O)N[C@@H](CC(C)C)C(=O)N[C@H](C(N)=O)C(C)C [compound 184] (H-H[Aib]EGTFTSDVSVLLEGAALQRFIQWLV-NH2)
260000 | – | 0.60 | – | – | – | – | – | 39.8 | 0.0398 | 820 | CC[C@H](C)[C@H](NC(=O)[C@H](Cc1ccccc1)NC(=O)[C@H](CCCNC(=N)N)NC(=O)[C@H](CCC(N)=O)NC(=O)[C@H](CC(C)C)NC(=O)[C@H](C)NC(=O)[C@H](C)NC(=O)CNC(=O)[C@H](CCC(=O)O)NC(=O)[C@H](CC(C)C)NC(=O)[C@H](CC(C)C)NC(=O)[C@H](Cc1ccccc1)NC(=O)[C@H](CO)NC(=O)[C@H](Cc1ccc(O)cc1)NC(=O)[C@H](CC(=O)O)NC(=O)[C@H](CO)NC(=O)[C@@H](NC(=O)[C@H](Cc1ccccc1)NC(=O)[C@@H](NC(=O)CNC(=O)[C@H](CCC(=O)O)NC(=O)C(C)(C)NC(=O)[C@@H](N)Cc1c[nH]cn1)[C@@H](C)O)[C@@H](C)O)C(=O)N[C@@H](CCC(N)=O)C(=O)N[C@@H](Cc1c[nH]c2ccccc12)C(=O)N[C@@H](CC(C)C)C(=O)N[C@H](C(N)=O)C(C)C [compound 202] (H-H[Aib]EGTFTSDYSFLLEGAALQRFIQWLV-NH2)
